Results from patent publication US12484580B2, “Use of alkoxypyrazoles as nitrification inhibitors” (BASF SE, priority 2018, dated 2025).

Assays:
[1] = test system: nitrification (soil microbial biomass); experiment: inhibition of nitrification in soil incubation test (ammonium and nitrate content after 0 and 14 days); details: compound at 1% of nitrogen N, 100 g soil, 10 mg ammoniumsulfate-N, 20° C., best obtained NI value
Method: The compounds of the invention have been tested as follows in terms of the inhibition of nitrification: 100 g soil is filled into 500 ml plastic bottles (e.g. soil sampled from the field) and is moistened to 50% water holding capacity. The soil is incubated at 20° C. for two weeks to activate the microbial biomass. 1 ml test solution, containing the compound in the appropriate concentration (usually 0.3 or 1% of nitrogen N), or DMSO and 10 mg nitrogen in the form of ammoniumsulfate-N is added to the soil and everything mixed well. Bottles are capped but loosely to allow air exchange. The bottles are then incubated at 20° C. for 0 and 14 days. For analysis, 300 ml of a 1% K2SO4-solution is added to the bottle containing the soil and shaken for 2 hours in a horizontal shaker at 150 rpm. Then the whole solution is filtered through a filter (Macherey-Nagel Filter MN 807 ¼). Ammonium and nitrate content is then analyzed in the filtrate in an autoanalyzer at 550 nm (Merck, AA11). The inhibition (NI @ a specified concentration) is calculated as follows: [formula]

[2] = volatility of prior-art nitrification inhibitor; type: physicochemical; details: stated as disadvantageous for long-term applications

volatility [2] | Structure (SMILES) | NI* @ 1% [1]
– | CCOc1[nH]nc(C)c1Cl [compound 9] | 22.0
high volatility | CCOc1cc(C)[nH]n1 [3-ethoxy-5-methylpyrazole] | –
